Reference: paper PMC10301922, “Anti-Oxidant, Anti-Mutagenic Activity and Safety Evaluation of Antrocin” (Toxics, 2023)
Entries after “also recorded” stand apart in the source; their conditions may differ. Read-outs that look alike come from different tables or passages of the source.

Tests used:
[1] = test system: Salmonella typhimurium TA1535; test: Antimutagenicity test, TA1535
[2] = test system: Salmonella typhimurium TA98; test: Ames test (plate incorporation), TA98
[3] = test system: five different strains of Salmonella typhimurium; test: Bacterial toxicity test prior to the Ames test; details: all tester strains
CHO-K1 cells = test system: CHO-K1 cells
Protocol: A chromosomal aberration test was performed to evaluate the potential for antrocin to induce structural chromosomal abnormalities in Chinese hamster ovary cells (CHO-K1 cells). The test followed the protocol in Genetic Toxicology Testing: A Laboratory Manual. CHO-K1 cells were obtained from the Bioresource Collection and Research Center (BCRC), and were cultured in Ham F-12 medium with 10% fetal bovine serum and 0.1% Penicillin–Streptomycin at 5% CO2 in a 37 °C incubator. […] Three experimental conditions were conducted: 3 h with and without S9 (short term), and 19 h without S9 (long term). […] CHO-K1 cells were cultured in 25T flasks, incubated with samples for 3 or 19 h with and without S9, and harvested at the time of 1.5 cell cycle lengths (about 21 h). Two hours before harvesting, 100 μL colcemid (10 μg/mL) was added to disrupt cell mitosis. Collected cells were then treated with 0.6% KCl solution and fixed with acetic acid–methanol (1:3) solution. After fixation, cells were stained with Diff-Quik on a glass slide. A total of 300 cells in metaphase per group were observed, and the number of chromosomal aberrations was recorded. The chromosomal aberration rate (%) was calculated using the following formula: (number of cells with aberrations/total number of cells examined) × 100. A Student’s t-test was used for statistical analysis, and a significant increase (p < 0.05) compared to the negative control indicated a positive response.

[4] = test system: Salmonella typhimurium TA98
Sprague Dawley rats = test: 28-day oral toxicity test: hematology
[5] = TA1535, with S9, mutagen 2-AA 25 μg/plate, antrocin 0.025 mg/plate
[6] = TA1535, with S9, mutagen 2-AA 25 μg/plate, antrocin 0.05 mg/plate
[7] = TA1535, with S9, mutagen 2-AA 25 μg/plate, antrocin […]
[8] = TA1535, without S9, mutagen sodium azide 5 μg/plate, antrocin 0.025 mg/plate
[9] = TA1535, without S9, mutagen sodium azide 5 μg/plate, antrocin 0.05 mg/plate
[10] = TA1535, without S9, mutagen sodium azide 5 μg/plate, antrocin […]
[11] = TA98, with S9, mutagen 2-AA 25 μg/plate, antrocin 0.025 mg/plate
[12] = TA98, with S9, mutagen 2-AA 25 μg/plate, antrocin 0.05 mg/plate
[13] = TA98, with S9, mutagen 2-AA 25 μg/plate, antrocin […]
[14] = TA98, without S9, mutagen 4-NQO 2.5 μg/plate, antrocin 0.025 mg/plate
[15] = TA98, without S9, mutagen 4-NQO 2.5 μg/plate, antrocin 0.05 mg/plate
[16] = TA98, without S9, mutagen 4-NQO 2.5 μg/plate, antrocin […]
[17] = female rats, 7.5 mg/kg oral 28 d
[18] = female rats, 37.5 mg/kg oral 28 d
[19] = male rats, 37.5 mg/kg oral 28 d

Compound: C=C1CC[C@H]2C(C)(C)CCC[C@@]23C(=O)OC[C@@H]13 [Antrocin, (-)-Antrocin]
- Inhibition (%) of mutagenicity [1, 5]: 20.49%
- Number of Revertant [1, 5]: 217.3 ± 10.2 Colony/Plate
- Inhibition (%) of mutagenicity [1, 6]: 33.25%
- Number of Revertant [1, 6]: 184.3 ± 3.8 Colony/Plate
- Inhibition (%) of mutagenicity [1, 7]: 8.63%
- Number of Revertant [1, 7]: 248.0 ± 9.5 Colony/Plate
- Inhibition (%) of mutagenicity [1, 8]: 16.74%
- Number of Revertant [1, 8]: 1095.0 ± 28.0 Colony/Plate
- Inhibition (%) of mutagenicity [1, 9]: 25.80%
- Number of Revertant [1, 9]: 977.0 ± 18.1 Colony/Plate
- Inhibition (%) of mutagenicity [1, 10]: 4.40%
- Number of Revertant [1, 10]: 1255.7 ± 47.7 Colony/Plate
- Number of Revertant ([2]; TA98, with S9, 0.003125 mg/plate): 33.7 ± 1.2 Colony/Plate
- Number of Revertant ([2]; TA98, with S9, 0.00625 mg/plate): 32.0 ± 1.6 Colony/Plate
- Number of Revertant ([2]; TA98, with S9, 0.025 mg/plate): 34.3 ± 3.3 Colony/Plate
- Number of Revertant ([2]; TA98, with S9, 0.05 mg/plate): 36.0 ± 4.3 Colony/Plate
- Number of Revertant ([2]; TA98, without S9, 0.00625 mg/plate): 246.0 ± 16.4 Colony/Plate
- Number of Revertant ([2]; TA98, without S9, 0.025 mg/plate): 278.3 ± 4.5 Colony/Plate
- Number of Revertant ([2]; TA98, without S9, 0.05 mg/plate): 270.0 ± 11.2 Colony/Plate
- bacterial mutagenicity ([2]; preliminary tests, TA98, 100 μg/plate): no bacterial mutagenicity
- maximum non-toxic concentration [3]: 0.05 mg/plate
- chromosomal aberration frequency versus negative control (CHO-K1 cells; 25-100 μg/mL, short-term with S9, short-term without S9, long-term exposure): no significant differences
- Frequency of Chromosomal Aberration (%) (CHO-K1 cells; with S9 (3 h), 25 μg/mL): 5.3 ± 1.2%
- Total Aberrations (CHO-K1 cells; with S9 (3 h), 25 μg/mL): 16/300
- Frequency of Chromosomal Aberration (%) (CHO-K1 cells; with S9 (3 h), 50 μg/mL): 6.3 ± 2.1%
- Total Aberrations (CHO-K1 cells; with S9 (3 h), 50 μg/mL): 19/300
- Frequency of Chromosomal Aberration (%) (CHO-K1 cells; with S9 (3 h), 100 μg/mL): 6.3 ± 2.1%
- Total Aberrations (CHO-K1 cells; with S9 (3 h), 100 μg/mL): 19/300
- Frequency of Chromosomal Aberration (%) (CHO-K1 cells; without S9 (3 h), 25 μg/mL): 4.3 ± 3.8%
- Total Aberrations (CHO-K1 cells; without S9 (3 h), 25 μg/mL): 13/300
- Frequency of Chromosomal Aberration (%) (CHO-K1 cells; without S9 (3 h), 50 μg/mL): 4.3 ± 2.9%
- Total Aberrations (CHO-K1 cells; without S9 (3 h), 50 μg/mL): 13/300
- Frequency of Chromosomal Aberration (%) (CHO-K1 cells; without S9 (3 h), 100 μg/mL): 5.3 ± 2.1%
- Total Aberrations (CHO-K1 cells; without S9 (3 h), 100 μg/mL): 16/300
- Frequency of Chromosomal Aberration (%) (CHO-K1 cells; without S9 (19 h), 25 μg/mL): 9.3 ± 1.2%
- Total Aberrations (CHO-K1 cells; without S9 (19 h), 25 μg/mL): 28/300
- Frequency of Chromosomal Aberration (%) (CHO-K1 cells; without S9 (19 h), 50 μg/mL): 10.3 ± 2.5%
- Total Aberrations (CHO-K1 cells; without S9 (19 h), 50 μg/mL): 31/300
- Frequency of Chromosomal Aberration (%) (CHO-K1 cells; without S9 (19 h), 100 μg/mL): 7.3 ± 1.5%
- Total Aberrations (CHO-K1 cells; without S9 (19 h), 100 μg/mL): 22/300
- Inhibition (%) of mutagenicity [4, 11]: 18.17%
- Number of Revertant [4, 11]: 4959.0 ± 739.1 Colony/Plate
- Inhibition (%) of mutagenicity [4, 12]: 33.67%
- Number of Revertant [4, 12]: 4024.0 ± 251.1 Colony/Plate
- Inhibition (%) of mutagenicity [4, 13]: 6.21%
- Number of Revertant [4, 13]: 5680.3 ± 640.7 Colony/Plate
- antimutagenic agent strength ([4]; TA98, without S9, against direct mutagen 4-NQO): strong anti-mutagenic agent; also recorded: very strong anti-mutagenic effect
- Inhibition (%) of mutagenicity [4, 14]: 51.03%
- Number of Revertant [4, 14]: 67.7 ± 2.5 Colony/Plate
- Inhibition (%) of mutagenicity [4, 15]: 98.62%
- Number of Revertant [4, 15]: 21.7 ± 1.5 Colony/Plate
- Inhibition (%) of mutagenicity [4, 16]: 35.17%
- Number of Revertant [4, 16]: 83.0 ± 3.6 Colony/Plate
- BASO (Sprague Dawley rats; [17]): 0.0 ± 0.1%
- EOSIN (Sprague Dawley rats; [17]): 2.1 ± 1.7%
- HCT (Sprague Dawley rats; [17]): 45.0 ± 3.7%
- HGB (Sprague Dawley rats; [17]): 14.7 ± 1.2 g/dL
- LYMPH (Sprague Dawley rats; [17]): 86.1 ± 5.4%
- MCH (Sprague Dawley rats; [17]): 19.5 ± 0.8 pg
- MCHC (Sprague Dawley rats; [17]): 32.7 ± 0.3 g/dL
- MCV (Sprague Dawley rats; [17]): 59.7 ± 1.7 fL
- MONO (Sprague Dawley rats; [17]): 2.3 ± 1.1%
- NEUT (Sprague Dawley rats; [17]): 9.6 ± 3.3%
- PLT (Sprague Dawley rats; [17]): 606.0 ± 430.1 * 10^3/µL
- RBC (Sprague Dawley rats; [17]): 7.5 ± 0.6 10^6/µL
- WBC (Sprague Dawley rats; [17]): 8.7 ± 3.4 10^3/µL
- BASO (Sprague Dawley rats; [18]): 0.2 ± 0.2%
- EOSIN (Sprague Dawley rats; [18]): 1.2 ± 0.3%
- HCT (Sprague Dawley rats; [18]): 48.4 ± 2.0%
- HGB (Sprague Dawley rats; [18]): 15.8 ± 0.5 g/dL
- LYMPH (Sprague Dawley rats; [18]): 84.5 ± 4.1%
- MCH (Sprague Dawley rats; [18]): 19.8 ± 0.5 pg
- MCHC (Sprague Dawley rats; [18]): 32.7 ± 0.4 g/dL
- MCV (Sprague Dawley rats; [18]): 60.6 ± 1.0 fL
- MONO (Sprague Dawley rats; [18]): 3.2 ± 2.0%
- NEUT (Sprague Dawley rats; [18]): 10.9 ± 3.4%
- PLT (Sprague Dawley rats; [18]): 1065.6 ± 199.8 10^3/µL
- RBC (Sprague Dawley rats; [18]): 8.0 ± 0.4 10^6/µL
- WBC (Sprague Dawley rats; [18]): 7.8 ± 4.5 10^3/µL
- BASO (Sprague Dawley rats; male rats, 7.5 mg/kg oral 28 d): 0.0 ± 0.1%
- EOSIN (Sprague Dawley rats; male rats, 7.5 mg/kg oral 28 d): 1.2 ± 0.3%
- HCT (Sprague Dawley rats; male rats, 7.5 mg/kg oral 28 d): 45.8 ± 1.2%
- HGB (Sprague Dawley rats; male rats, 7.5 mg/kg oral 28 d): 15.1 ± 0.4 g/dL
- LYMPH (Sprague Dawley rats; male rats, 7.5 mg/kg oral 28 d): 77.2 ± 1.7 %
- MCH (Sprague Dawley rats; male rats, 7.5 mg/kg oral 28 d): 19.7 ± 0.5 pg
- MCHC (Sprague Dawley rats; male rats, 7.5 mg/kg oral 28 d): 32.9 ± 0.3 g/dL
- MCV (Sprague Dawley rats; male rats, 7.5 mg/kg oral 28 d): 59.8 ± 1.5 fL
- MONO (Sprague Dawley rats; male rats, 7.5 mg/kg oral 28 d): 2.7 ± 2.4%
- NEUT (Sprague Dawley rats; male rats, 7.5 mg/kg oral 28 d): 18.9 ± 3.1%
- PLT (Sprague Dawley rats; male rats, 7.5 mg/kg oral 28 d): 1235.2 ± 20.9 * 10^3/µL
- RBC (Sprague Dawley rats; male rats, 7.5 mg/kg oral 28 d): 7.7 ± 0.1 10^6/µL
- WBC (Sprague Dawley rats; male rats, 7.5 mg/kg oral 28 d): 5.3 ± 2.0 10^3/µL
- BASO (Sprague Dawley rats; [19]): 0.1 ± 0.1%
- EOSIN (Sprague Dawley rats; [19]): 0.6 ± 0.4%
- HCT (Sprague Dawley rats; [19]): 48.3 ± 3.2%
- HGB (Sprague Dawley rats; [19]): 15.7 ± 0.9 g/dL
- LYMPH (Sprague Dawley rats; [19]): 83.9 ± 3.9 %
- MCH (Sprague Dawley rats; [19]): 19.4 ± 0.6 pg
- MCHC (Sprague Dawley rats; [19]): 32.4 ± 0.6 g/dL
- MCV (Sprague Dawley rats; [19]): 59.8 ± 1.3 fL
- MONO (Sprague Dawley rats; [19]): 1.8 ± 1.1%
- NEUT (Sprague Dawley rats; [19]): 13.6 ± 3.7 %
- PLT (Sprague Dawley rats; [19]): 1372.2 ± 161.8 * 10^3/µL
- RBC (Sprague Dawley rats; [19]): 8.1 ± 0.6 10^6/µL
- WBC (Sprague Dawley rats; [19]): 6.4 ± 1.1 10^3/µL
